# According to patent publication US10189782B2, “Derivatives of indole for the treatment of cancer, viral infections and lung diseases” (BIOKINESIS, priority 2012, dated 2019):
# Where a name gives a salt, the structure may show the parent alone.
# Target: T1, Human recombinant MKlp2 motor domain1-519, His tagged (Homo sapiens, UniProt O95235)
# T1 construct: Human recombinant MKlp2 motor domain1-519, His tagged; His; purchased Cytoskeleton MP05
# T1 sequence (O95235 1-519): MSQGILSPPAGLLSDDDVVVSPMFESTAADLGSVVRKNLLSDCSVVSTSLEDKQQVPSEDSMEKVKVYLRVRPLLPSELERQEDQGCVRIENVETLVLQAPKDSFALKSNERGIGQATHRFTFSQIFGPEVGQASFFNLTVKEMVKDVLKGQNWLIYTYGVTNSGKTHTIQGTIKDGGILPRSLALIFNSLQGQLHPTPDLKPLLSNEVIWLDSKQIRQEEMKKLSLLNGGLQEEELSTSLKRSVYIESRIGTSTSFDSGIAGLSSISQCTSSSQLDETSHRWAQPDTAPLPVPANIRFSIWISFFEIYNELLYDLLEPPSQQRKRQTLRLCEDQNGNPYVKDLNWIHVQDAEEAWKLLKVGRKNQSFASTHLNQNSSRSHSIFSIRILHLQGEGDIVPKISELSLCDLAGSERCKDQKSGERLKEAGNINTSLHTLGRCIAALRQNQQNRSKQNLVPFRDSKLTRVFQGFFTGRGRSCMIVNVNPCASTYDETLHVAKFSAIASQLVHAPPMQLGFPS
# Assay: Microtubule stimulated ATPase activity of the MKlp2 motor domain (Kinesin ELIPA Assay Kit)
# Format: biochemical
# Conditions: Table 3, 22° C., read-out: MKIp2 IC50
# Experimental: Evaluation of Inhibitory Effects on the Microtubule Stimulated ATPase Activity of the MKlp2 Motor Domain.
# MKlp2 ATPase activity was measured by monitoring real time free phosphate generation using the Kinesin ELIPA Assay Kit. The assay is based upon an absorbance shift (330 nm-360 nm) that occurs when 2-amino-6-mercapto-7-methylpurine ribonucleoside (MESG) is catalytically converted to 2-amino-6-mercapto-7-methylpurine in the presence of inorganic phosphate (Pi). One molecule of Pi will yield one molecule of 2-amino-6-mercapto-7-methylpurine in an essentially irreversible reaction.
# All experiments were performed at 22° C.
# Condition 1, compound preparation.
# The compounds were dissolved in DMSO at 30× the maximum concentration to be tested. […] DMSO solutions were pipetted directly into each well.
# Condition 2, reaction's “motor mix”.
# The following were mixed sequentially in the specified order at RT to obtain the “motor mix”.
# 20 mL: 15 mM Pipes-NaOH pH 7.0, 10 mM MgCl2, 30 μM Tx (Buffer 1).
# 10 mL: 5× MSEG (ELIPA 1 reagent, Cat. # BK051).
# 10 mL: 2.5 mg/mL porcine brain microtubules (3×10 mg Cat. # MT002-XL resuspended in 12 mL of Buffer 1).
# 0.5 mL: 100×PNP (ELIPA 2 reagent, cat. # BK051).
# Condition 3, reaction initiation.
# The motor mix was pipetted into each well to obtain 80% of total volume. The reaction was initiated by adding a 20% of total volume of 5 mM ATP into each well.
# The reactions were measured in a SpectraMax M2 (Molecular Devices) set in kinetic mode and 360 nm absorbance wavelength. The start protocol was 5 second rapid circular mixing, 21 readings, 30 seconds apart.
row,Compound,IC50 [nM]
1,"CN(C)c1ccncc1/C=C(\C#N)c1c[nH]c2ccc(Cl)cc12 [Example 7, (Z)-2-(5-chloro-1H-indol-3-yl)-3-(4-(dimethylamino)pyridin-3-yl)acrylonitrile, Hydrochloride]",800
2,"N#C/C(=C\c1cnccc1Oc1ccccc1)c1c[nH]c2ccc(Cl)cc12 [Example 10, (Z)-2-(5-chloro-1H-indol-3-yl)-3-(4-phenoxypyridin-3-yl)acrylonitrile]",300
3,"CCSc1ccncc1/C=C(\C#N)c1c[nH]c2ccc(Br)cc12 [Example 16, (Z)-2-(5-bromo-1H-indol-3-yl)-3-(4-(ethylthio)pyridin-3-yl)acrylonitrile]",300
4,"N#C/C(=C\c1cnccc1SCc1ccccc1)c1c[nH]c2ccc(Br)cc12 [Example 20, (Z)-3-(4-(benzylthio)pyridin-3-yl)-2-(5-bromo-1H-indol-3-yl)acrylonitrile]",200
5,"N#C/C(=C\c1cnccc1Oc1ccc(F)cc1)c1c[nH]c2ccc(Br)cc12 [Example 22, (Z)-2-(5-bromo-1H-indol-3-yl)-3-(4-(4-fluorophenoxy)pyridin-3-yl)acrylonitrile]",90
6,"N#C/C(=C\c1cnccc1Oc1ccc(F)cc1)c1c[nH]c2ccc(Cl)cc12 [Example 23, (Z)-2-(5-chloro-1H-indol-3-yl)-3-(4-(4-fluorophenoxy)pyridin-3-yl)acrylonitrile]",90
7,"N#C/C(=C\c1cnccc1-c1ccc(C(F)(F)F)cc1)c1c[nH]c2ccc(Br)cc12 [Example 25, (Z)-2-(5-bromo-1H-indol-3-yl)-3-(4-(4-(trifluoromethyl)phenyl)pyridin-3-yl)acrylonitrile]",400
8,"N#C/C(=C\c1cnccc1-c1ccc(C(F)(F)F)cc1)c1c[nH]c2ccc(Cl)cc12 [Example 26, (Z)-2-(5-chloro-1H-indol-3-yl)-3-(4-(4-(trifluoromethyl)phenyl)pyridin-3-yl)acrylonitrile]",500

# Now from value to compound:
row,IC50 [nM],Compound
1,300,"CCOc1ccncc1/C=C(\C#N)c1c[nH]c2ccc(OC)cc12 [Example 2, (Z)-3-(4-ethoxypyridin-3-yl)-2-(5-methoxy-1H-indol-3-yl)acrylonitrile]"
2,500,"CN(C)c1ccncc1/C=C(\C#N)c1c[nH]c2ccc(Cl)cc12 [Example 6, (Z)-2-(5-chloro-1H-indol-3-yl)-3-(4-(dimethylamino)pyridin-3-yl)acrylonitrile]"
3,500,"N#C/C(=C\c1cnccc1Oc1ccccc1)c1c[nH]c2ccc(Br)cc12 [Example 11, (Z)-2-(5-bromo-1H-indol-3-yl)-3-(4-phenoxypyridin-3-yl)acrylonitrile]"
4,100,"CCOc1ccncc1/C=C(\C#N)c1c[nH]c2ccc(Br)cc12 [Example 13, (Z)-2-(5-bromo-1H-indol-3-yl)-3-(4-ethoxypyridin-3-yl)acrylonitrile]"
5,200,"CC(C)Oc1ccncc1/C=C(\C#N)c1c[nH]c2ccc(Br)cc12 [Example 14, (Z)-2-(5-bromo-1H-indol-3-yl)-3-(4-isopropoxypyridin-3-yl)acrylonitrile]"
6,300,"N#C/C(=C\c1cnccc1-c1cccc(Br)c1)c1c[nH]c2ccc(Br)cc12 [Example 17, (Z)-2-(5-bromo-1H-indol-3-yl)-3-(4-(3-bromophenyl)pyridin-3-yl)acrylonitrile]"
7,300,"N#C/C(=C\c1cnccc1-c1cccc(Br)c1)c1c[nH]c2ccc(Cl)cc12 [Example 18, (Z)-3-(4-(3-bromophenyl)pyridin-3-yl)-2-(5-chloro-1H-indol-3-yl)acrylonitrile]"
8,300,"N#C/C(=C\c1cnccc1Sc1ccccc1)c1c[nH]c2ccc(Br)cc12 [Example 19, (Z)-2-(5-bromo-1H-indol-3-yl)-3-(4-(phenylthio)pyridin-3-yl)acrylonitrile]"
9,400,"COc1ccc(Sc2ccncc2/C=C(\C#N)c2c[nH]c3ccc(Br)cc23)cc1OC [Example 21, (Z)-2-(5-bromo-1H-indol-3-yl)-3-(4-((3,4-dimethoxyphenyl)thio)pyridin-3-yl)acrylonitrile]"
